Results taken from US20250352520A1, “USE OF DEXPRAMIPEXOLE FOR THE TREATMENT OF EOSINOPHILIC COPD” (Areteia Therapeutics, Inc., priority 2024, published 2025).

Conditions: Week 4; >=50% AEC reduction at Week 16

CCCN[C@@H]1CCc2nc(N)sc2C1 [Dexpramipexole, (6R)-2-amino-4,5,6,7-tetrahydro-6-(propylamino)benzothiazole]
Pre-BD FEF25-75 % change from baseline, Max: 41% | Pre-BD FEF25-75 % change from baseline, Mean ± SD: 11.4 ± 25.76% | Pre-BD FEF25-75 % change from baseline, Median: −2.2% | Pre-BD FEF25-75 % change from baseline, Min: −5% | Pre-BD FEF25-75 % change from baseline, Q1: −5% | Pre-BD FEF25-75 % change from baseline, Q3: 41% | Pre-BD FEF25-75 Observed, Max: 1030 mL/s | Pre-BD FEF25-75 Observed, Mean ± SD: 710.0 ± 446.43 mL/s | Pre-BD FEF25-75 Observed, Median: 900.0 mL/s | Pre-BD FEF25-75 Observed, Min: 200 mL/s | Pre-BD FEF25-75 Observed, Q1: 200 mL/s | Pre-BD FEF25-75 Observed, Q3: 1030 mL/s | Pre-BD FEF25-75 change from baseline, Max: 300 mL/s | Pre-BD FEF25-75 change from baseline, Mean ± SD: 90.0 ± 181.93 mL/s | Pre-BD FEF25-75 change from baseline, Median: -10.0 mL/s | Pre-BD FEF25-75 change from baseline, Min: -20 mL/s | Pre-BD FEF25-75 change from baseline, Q1: -20 mL/s | Pre-BD FEF25-75 change from baseline, Q3: 300 mL/s | Pre-BD FEV1 % change from baseline, Max: 62% | Pre-BD FEV1 % change from baseline, Mean ± SD: 24.8 ± 32.69% | Pre-BD FEV1 % change from baseline, Median: 9.7% | Pre-BD FEV1 % change from baseline, Min: 2% | Pre-BD FEV1 % change from baseline, Q1: 2% | Pre-BD FEV1 % change from baseline, Q3: 62% | Pre-BD FEV1 Observed, Max: 2110 mL | Pre-BD FEV1 Observed, Mean ± SD: 1540.0 ± 678.16 mL | Pre-BD FEV1 Observed, Median: 1720.0 mL | Pre-BD FEV1 Observed, Min: 790 mL | Pre-BD FEV1 Observed, Q1: 790 mL | Pre-BD FEV1 Observed, Q3: 2110 mL | Pre-BD FEV1 change from baseline, Max: 810 mL | Pre-BD FEV1 change from baseline, Mean ± SD: 306.7 ± 436.16 mL | Pre-BD FEV1 change from baseline, Median: 70.0 mL | Pre-BD FEV1 change from baseline, Min: 40 mL | Pre-BD FEV1 change from baseline, Q1: 40 mL | Pre-BD FEV1 change from baseline, Q3: 810 mL | Pre-BD FVC % change from baseline, Max: 32% | Pre-BD FVC % change from baseline, Mean ± SD: 15.7 ± 14.81% | Pre-BD FVC % change from baseline, Median: 11.4% | Pre-BD FVC % change from baseline, Min: 3% | Pre-BD FVC % change from baseline, Q1: 3% | Pre-BD FVC % change from baseline, Q3: 32% | Pre-BD FVC Observed, Max: 3330 mL | Pre-BD FVC Observed, Mean ± SD: 2790.0 ± 497.59 mL | Pre-BD FVC Observed, Median: 2690.0 mL | Pre-BD FVC Observed, Min: 2350 mL | Pre-BD FVC Observed, Q1: 2350 mL | Pre-BD FVC Observed, Q3: 3330 mL | Pre-BD FVC change from baseline, Max: 810 mL | Pre-BD FVC change from baseline, Mean ± SD: 380.0 ± 379.87 mL | Pre-BD FVC change from baseline, Median: 240.0 mL | Pre-BD FVC change from baseline, Min: 90 mL | Pre-BD FVC change from baseline, Q1: 90 mL | Pre-BD FVC change from baseline, Q3: 810 mL | Pre-BD Peak Flow % change from baseline, Max: 143% | Pre-BD Peak Flow % change from baseline, Mean ± SD: 63.4 ± 69.42% | Pre-BD Peak Flow % change from baseline, Median: 28.2% | Pre-BD Peak Flow % change from baseline, Min: 18% | Pre-BD Peak Flow % change from baseline, Q1: 18% | Pre-BD Peak Flow % change from baseline, Q3: 143% | Pre-BD Peak Flow Observed, Max: 382 L/min | Pre-BD Peak Flow Observed, Mean ± SD: 260.7 ± 108.49 L/min | Pre-BD Peak Flow Observed, Median: 227.0 L/min | Pre-BD Peak Flow Observed, Min: 173 L/min | Pre-BD Peak Flow Observed, Q1: 173 L/min | Pre-BD Peak Flow Observed, Q3: 382 L/min | Pre-BD Peak Flow change from baseline, Max: 225 L/min | Pre-BD Peak Flow change from baseline, Mean ± SD: 100.7 ± 108.29 L/min | Pre-BD Peak Flow change from baseline, Median: 50.0 L/min | Pre-BD Peak Flow change from baseline, Min: 27 L/min | Pre-BD Peak Flow change from baseline, Q1: 27 L/min | Pre-BD Peak Flow change from baseline, Q3: 225 L/min
